A word on the IC50: it is the concentration that gives 50% inhibition.

Consider seven compounds from patent US12606546B2, “Small molecule inhibitors of calcium channel activity and uses thereof” (Arizona Board of Regents on Behalf of the University of …, priority 2020, dated 2026).

In assay [1] the test system is rats. The assay is described as follows: ALGOGram: carrageenan-induced mechanical hyperalgesia (paw pressure test). The assay is classed as in vivo, rat. The conditions noted are these: 0.4 μg/μl i.t., 120 min after treatment. Here is the method:
(§1) The analgesic profile of 3-14-3-S was analyzed by an in vivo screening tool, ALGOGram™ (ANS Biotech, Riom, France). This platform allowed for obtaining information about the effects of compounds in 5 different pain areas (Acute and tonic pain, inflammatory pain, neuropathic pain, postoperative pain and visceral pain), by comparing their activity on a battery of 10 validated behavioral pain models with an ANS Biotech reference historical database (Table 1). Assessment of the efficacy, and analgesic effects of a single administration (0.4 μg/μl, i.t.) 3-14-3-S was analyzed in the rat models of. Tail flick test in healthy rats, paw pressure test in healthy rats, acetic acid-induced writhing, formalin test, Bennett model of peripheral mononeuropathy, oxaliplatin-induced neuropathy, carrageenan-induced mechanical hyperalgesia, kaolin-induced arthritis, Brennan model of incisional pain; and trinitrobenzene sulfonic acid (TNBS)-induced visceral hypersensitivity (Table 2).
(§2) Testing: 120 min after treatment. n=4/model/test (excepted for 3-14-3-S-treated group in Oxaliplatin model n=3). Results are expressed for each group as a percentage of activity calculated from the mean value of the vehicle-treated animals and compared to naïve animals, control paw or cut-off value, depending on the test (from the ANS Biotech historical database). Ligand Docking

The test system of assay [2] is rats. The assay is described as follows: ALGOGram: acetic acid test (abdominal cramps). The assay is classed as in vivo, rat. To be noted: 0.4 μg/μl i.t., 120 min after treatment. Here is the method: as §1, §2
Assay [3] concerns healthy rats. The assay can be described thus: ALGOGram: healthy rats, tail flick test. The assay is classed as in vivo, rat. To be noted: 0.4 μg/μl i.t., 120 min after treatment. Here is the method:
as §1, §2
A general note: In hot-plate and tail-flick tests a longer latency is read as antinociception.

Assay [4] has as its system high voltage activated calcium channels. The assay is described as follows: Fura-2AM calcium imaging, 90 mM KCl-evoked Ca2+ influx in DRG neurons. To be noted: separated enantiomers, data not shown.
Another assay addresses T1, CaV3.3 (Homo sapiens, UniProt Q9P0X4).
T1 construct: expressed in transfected cells; host or cells: HEK293T
The assay is described as follows: Whole-cell patch clamp in HEK293T cells transiently expressing CaV3.3. The conditions noted are these: for effect on CaV3.3 mediated currents: 50 μM. The class given is cell-based. Here is the method: (§3) Human embryonic kidney HEK293T cells were cultured in DMEM supplemented with 10% fetal bovine serum and 1% penicillin/streptomycin sulfate, maintained in standard conditions (5% CO2, 37° C., saturated humidity). Cells were transfected with 2 μg of either of the channel cDNAs using Lipofectamine 2000 when cell confluence reached 70-90%. Four to six hours after transfection, cells were seeded onto poly-l-lysine-coated coverslips. Positively transfected cells were indicated by the fluorescence of co-transfected enhanced green fluorescent protein (0.2 μg). All the experiments were performed 36 hours after cell transfection.
(§4) For electrophysiological recording, the external solution contained (in mM): 105 CsCl, TEA-Cl, 2 CaCl2), 1 MgCl2, and 10 glucose (pH 7.4 adjusted with CsOH, and mOsm/L=295-305). The internal solution consisted of (in mM): 120 CsMeSO4, 11 EGTA, 2 Mg-ATP, and HEPES (pH 7.4 adjusted with CsOH, and mOsm/L=295-305). All experiments were conducted at room temperature (22-24° C.). The T-type calcium currents were elicited by a depolarization to −20 or −10 mV for 200-millisecond from a hold potential of −90 mV. Data were collected by the Patchmaster software in a HEKA EPC-10 USB patch-clamp system. Voltage errors were minimized by using 80% series resistance compensation. The capacitance artifact was canceled by using the computer-controlled circuitry of the patch-clamp amplifier. The concentration-response curves of the test compounds on CaV3 channels were fitted to a Hill equation to estimate the potency of the compounds (IC50).
(In general: In patch-clamp work, channel activity is measured electrically.)

The target in a further assay is T2, CaV3.1 (Homo sapiens, UniProt O43497).
T2 construct: expressed in transfected cells; host or cells: HEK293T
The assay can be described thus: Whole-cell patch clamp in HEK293T cells transiently expressing CaV3.1. The class given is cell-based. To be noted: for effect on CaV3.1 mediated currents: 50 μM. Here is the method: as §3, §4

Assay [5] relates to total calcium current in small- to medium-sized DRG neurons. The assay can be described thus: Whole-cell patch clamp of total Ca2+ currents in DRG neurons. The assay is classed as cell-based, rat. To be noted: for Activation V1/2 / Activation k (slope factor) / Inactivation V1/2 / Inactivation k (slope factor): Boltzmann fit, mean ± SEM; for peak calcium current density: overnight (DMSO −96.91±12.39); for reduction in Ca2+ currents at peak current density: overnight, compared to 0.1% DMSO. Here is the method: Recordings were obtained from acutely dissociated DRG neurons as described in Bellampalli et al. Patch-clamp recordings were performed at room temperature (22-24° C.). Currents were recorded using an EPC 10 Amplifier-HEKA (HEKA Elektronik, Ludwigshafen, Germany) linked to a computer with Patchmaster software. DRG neurons were incubated overnight (˜16-24 h) with 20 μM of 3-25-R and 3-14-3-S.
For total calcium current (ICa^2+) recordings, the external solution consisted of the following (in mM): 110 N-methyl-D-glucamine, 10 BaCl2, 30 TEA-Cl, 10 HEPES, 10 glucose, 0.001 TTX (pH 7.29 adjusted with NaOH, and mOsm/L=310). Patch pipettes were filled with an internal solution containing (in mM): 150 […], 10 HEPES, 5 Mg-ATP, and 5 BAPTA, (pH 7.24 adjusted with CsOH, and from a holding potential of −90 mV to obtain the current-voltage (I-V) relation. Normalization of currents to each cell's capacitance (pF) was performed to allow for collection of current density data. For I-V curves, functions were fitted to data using a non-linear least squares analysis. I-V curves were fitted using double Boltzmann functions: f=a+g1/(1+exp((x−V1/21)/k1))+g2/(1+exp(−(x−V1/22)/k2)) where x is the prepulse potential, V1/2 is the mid-point potential and k is the corresponding slope factor for single Boltzmann functions. Double Boltzmann fits were used to describe the shape of the curve, not to imply the existence of separate channel populations. Numbers 1 and 2 simply indicate first and second mid-points; a along with g are fitting parameters.
Activation curves were obtained from the I-V curves by dividing the peak current at each depolarizing step by the driving force according to the equation: G=I/(Vmem−Erev), where I is the peak current, Vmem is the membrane potential and Erev is the reversal potential. The conductance (G) was normalized against the maximum conductance (Gmax). Steady-state inactivation (SSI) curves were obtained by applying an H-infinity protocol that consisted of 1.5-seconds conditioning pre-pulses from −100 to +30 mV in 10-mV increments followed by a 20-millisecond test pulse to +10 mV. Inactivation curves were obtained by dividing the peak current recorded at the test pulse by the maximum current (Imax). Activation and SSI curves were fitted with the Boltzmann equation.

Another assay concerns the target T3, CaV3.2 (Homo sapiens, UniProt O95180).
T3 construct: expressed in transfected cells; host or cells: HEK293T
The assay is described as follows: Whole-cell patch clamp in HEK293T cells transiently expressing CaV3.2. To be noted: for effect on CaV3.2 mediated currents: 50 μM. The class given is cell-based. Here is the method: as §3, §4

Assay [6] has as its system rats. The assay is described as follows: ALGOGram: oxaliplatin-induced neuropathy (paw immersion test). To be noted: 0.4 μg/μl i.t., 120 min after treatment, n=3. The class given is in vivo, rat. Here is the method: as §1, §2
Assay [7] has as its system healthy rats. The assay is described as follows: ALGOGram: healthy rats, paw pressure test. The class given is in vivo, rat. To be noted: 0.4 μg/μl i.t., 120 min after treatment. Here is the method:
as §1, §2

Assay [8] has as its system rats. The assay can be described thus: ALGOGram: TNBS-induced visceral hypersensitivity (colonic distension). The assay is classed as in vivo, rat. The conditions noted are these: 0.4 μg/μl i.t., 120 min after treatment. Here is the method: as §1, §2
For assay [9], the system named is rats. The assay can be described thus: ALGOGram: Bennett model of peripheral mononeuropathy (paw pressure test). To be noted: 0.4 μg/μl i.t., 120 min after treatment. The assay is classed as in vivo, rat. Here is the method: as §1, §2
The test system of assay [10] is rats. The assay is described as follows: ALGOGram: formalin test (paw licking time). The assay is classed as in vivo, rat. To be noted: 0.4 μg/μl i.t., 120 min after treatment. Here is the method: as §1, §2
The subject of assay [11] is healthy rats. The conditions noted are these: tail flick test, 4 mg/kg s.c., T30 min; cited from earlier work.
For assay [12], the system named is rats. The conditions noted are these: formalin test, 4 mg/kg s.c., T30 min, cited from earlier work.
The subject of assay [13] is rats. To be noted: Brennan model, electronic Von Frey test, 4 mg/kg s.c., T30 min; cited from earlier work.
The test system of assay [14] is healthy rats. The conditions noted are these: paw pressure test, 4 mg/kg s.c., T30 min; cited from earlier work.
Assay [15] deals with rats. The conditions noted are these: oxaliplatin, paw immersion test, 100 mg/kg p.o., T60 min; cited from earlier work.
In assay [16] the target is influenza virus polymerase PA-PB1 protein-protein interactions (Influenza A virus, UniProt P03433). To be noted: previously tested [93]; cited from earlier work.
Assay [17] relates to rats. To be noted: carrageenan, paw pressure test, 30 mg/kg p.o., T60 min; cited from earlier work. (In general: The carrageenan paw model is a standard test of acute inflammation.)
Assay [18] deals with rats. The conditions noted are these: kaolin, gait score, 30 mg/kg p.o., T60 min; cited from earlier work.

Each structure is given as a SMILES string. Like-named read-outs stand apart in the source and are kept apart here.

T3 sequence (O95180 whole entry): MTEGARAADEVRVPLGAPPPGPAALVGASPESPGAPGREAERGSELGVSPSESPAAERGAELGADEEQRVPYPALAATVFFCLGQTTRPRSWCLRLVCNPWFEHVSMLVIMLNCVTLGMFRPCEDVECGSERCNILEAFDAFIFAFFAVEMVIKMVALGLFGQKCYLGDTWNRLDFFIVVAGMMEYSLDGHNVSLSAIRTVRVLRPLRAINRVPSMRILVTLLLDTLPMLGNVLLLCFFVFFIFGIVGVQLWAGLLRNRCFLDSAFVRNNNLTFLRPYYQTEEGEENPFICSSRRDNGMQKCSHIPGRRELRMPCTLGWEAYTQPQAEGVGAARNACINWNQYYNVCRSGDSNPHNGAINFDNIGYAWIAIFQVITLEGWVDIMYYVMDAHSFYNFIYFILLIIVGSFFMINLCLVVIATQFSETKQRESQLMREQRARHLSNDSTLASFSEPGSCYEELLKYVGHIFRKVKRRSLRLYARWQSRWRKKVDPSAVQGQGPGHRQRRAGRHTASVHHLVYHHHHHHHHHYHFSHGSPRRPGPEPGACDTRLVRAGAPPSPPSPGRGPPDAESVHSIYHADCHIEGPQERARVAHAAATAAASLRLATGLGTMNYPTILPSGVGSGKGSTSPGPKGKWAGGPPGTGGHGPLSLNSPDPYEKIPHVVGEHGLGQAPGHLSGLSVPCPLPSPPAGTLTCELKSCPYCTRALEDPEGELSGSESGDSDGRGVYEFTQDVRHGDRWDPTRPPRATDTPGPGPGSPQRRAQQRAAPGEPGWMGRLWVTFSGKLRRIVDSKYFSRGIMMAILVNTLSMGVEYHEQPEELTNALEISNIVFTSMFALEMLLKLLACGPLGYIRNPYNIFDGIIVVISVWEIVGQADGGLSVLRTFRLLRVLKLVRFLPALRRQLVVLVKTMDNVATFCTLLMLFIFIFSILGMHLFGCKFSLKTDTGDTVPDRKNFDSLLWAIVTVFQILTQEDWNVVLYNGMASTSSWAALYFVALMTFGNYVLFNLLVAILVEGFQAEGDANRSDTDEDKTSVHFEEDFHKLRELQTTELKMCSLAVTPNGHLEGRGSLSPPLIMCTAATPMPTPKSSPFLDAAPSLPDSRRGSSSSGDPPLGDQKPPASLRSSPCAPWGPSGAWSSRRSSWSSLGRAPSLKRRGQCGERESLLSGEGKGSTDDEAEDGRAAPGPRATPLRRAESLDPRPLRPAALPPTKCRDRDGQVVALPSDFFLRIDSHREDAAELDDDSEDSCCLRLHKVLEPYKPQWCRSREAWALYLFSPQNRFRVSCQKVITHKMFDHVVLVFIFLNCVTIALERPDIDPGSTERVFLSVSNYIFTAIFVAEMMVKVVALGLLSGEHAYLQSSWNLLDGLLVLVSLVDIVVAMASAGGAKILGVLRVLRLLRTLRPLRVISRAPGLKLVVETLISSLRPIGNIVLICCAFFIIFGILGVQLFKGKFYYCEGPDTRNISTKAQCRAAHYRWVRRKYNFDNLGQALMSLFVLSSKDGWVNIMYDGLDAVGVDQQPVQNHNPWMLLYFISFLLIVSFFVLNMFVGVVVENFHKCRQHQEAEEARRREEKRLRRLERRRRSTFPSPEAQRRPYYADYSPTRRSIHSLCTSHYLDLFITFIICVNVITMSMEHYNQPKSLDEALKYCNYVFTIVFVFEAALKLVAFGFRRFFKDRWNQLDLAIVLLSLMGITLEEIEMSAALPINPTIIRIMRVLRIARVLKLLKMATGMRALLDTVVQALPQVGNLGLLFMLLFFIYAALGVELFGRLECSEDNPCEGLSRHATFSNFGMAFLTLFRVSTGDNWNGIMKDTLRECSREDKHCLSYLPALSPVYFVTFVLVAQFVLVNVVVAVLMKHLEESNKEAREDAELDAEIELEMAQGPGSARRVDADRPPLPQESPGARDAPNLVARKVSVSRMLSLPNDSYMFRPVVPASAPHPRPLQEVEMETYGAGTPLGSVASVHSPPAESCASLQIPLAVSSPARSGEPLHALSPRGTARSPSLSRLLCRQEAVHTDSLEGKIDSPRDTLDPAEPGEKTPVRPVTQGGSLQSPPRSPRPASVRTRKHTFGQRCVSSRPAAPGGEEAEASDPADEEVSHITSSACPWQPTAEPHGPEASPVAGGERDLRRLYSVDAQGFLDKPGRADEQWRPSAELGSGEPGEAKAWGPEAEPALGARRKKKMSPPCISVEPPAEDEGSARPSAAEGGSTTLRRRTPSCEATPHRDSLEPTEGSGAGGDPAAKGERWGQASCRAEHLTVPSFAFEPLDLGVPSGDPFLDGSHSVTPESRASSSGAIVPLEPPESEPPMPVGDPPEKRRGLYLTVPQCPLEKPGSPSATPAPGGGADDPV
T1 sequence (Q9P0X4 whole entry, species assumed): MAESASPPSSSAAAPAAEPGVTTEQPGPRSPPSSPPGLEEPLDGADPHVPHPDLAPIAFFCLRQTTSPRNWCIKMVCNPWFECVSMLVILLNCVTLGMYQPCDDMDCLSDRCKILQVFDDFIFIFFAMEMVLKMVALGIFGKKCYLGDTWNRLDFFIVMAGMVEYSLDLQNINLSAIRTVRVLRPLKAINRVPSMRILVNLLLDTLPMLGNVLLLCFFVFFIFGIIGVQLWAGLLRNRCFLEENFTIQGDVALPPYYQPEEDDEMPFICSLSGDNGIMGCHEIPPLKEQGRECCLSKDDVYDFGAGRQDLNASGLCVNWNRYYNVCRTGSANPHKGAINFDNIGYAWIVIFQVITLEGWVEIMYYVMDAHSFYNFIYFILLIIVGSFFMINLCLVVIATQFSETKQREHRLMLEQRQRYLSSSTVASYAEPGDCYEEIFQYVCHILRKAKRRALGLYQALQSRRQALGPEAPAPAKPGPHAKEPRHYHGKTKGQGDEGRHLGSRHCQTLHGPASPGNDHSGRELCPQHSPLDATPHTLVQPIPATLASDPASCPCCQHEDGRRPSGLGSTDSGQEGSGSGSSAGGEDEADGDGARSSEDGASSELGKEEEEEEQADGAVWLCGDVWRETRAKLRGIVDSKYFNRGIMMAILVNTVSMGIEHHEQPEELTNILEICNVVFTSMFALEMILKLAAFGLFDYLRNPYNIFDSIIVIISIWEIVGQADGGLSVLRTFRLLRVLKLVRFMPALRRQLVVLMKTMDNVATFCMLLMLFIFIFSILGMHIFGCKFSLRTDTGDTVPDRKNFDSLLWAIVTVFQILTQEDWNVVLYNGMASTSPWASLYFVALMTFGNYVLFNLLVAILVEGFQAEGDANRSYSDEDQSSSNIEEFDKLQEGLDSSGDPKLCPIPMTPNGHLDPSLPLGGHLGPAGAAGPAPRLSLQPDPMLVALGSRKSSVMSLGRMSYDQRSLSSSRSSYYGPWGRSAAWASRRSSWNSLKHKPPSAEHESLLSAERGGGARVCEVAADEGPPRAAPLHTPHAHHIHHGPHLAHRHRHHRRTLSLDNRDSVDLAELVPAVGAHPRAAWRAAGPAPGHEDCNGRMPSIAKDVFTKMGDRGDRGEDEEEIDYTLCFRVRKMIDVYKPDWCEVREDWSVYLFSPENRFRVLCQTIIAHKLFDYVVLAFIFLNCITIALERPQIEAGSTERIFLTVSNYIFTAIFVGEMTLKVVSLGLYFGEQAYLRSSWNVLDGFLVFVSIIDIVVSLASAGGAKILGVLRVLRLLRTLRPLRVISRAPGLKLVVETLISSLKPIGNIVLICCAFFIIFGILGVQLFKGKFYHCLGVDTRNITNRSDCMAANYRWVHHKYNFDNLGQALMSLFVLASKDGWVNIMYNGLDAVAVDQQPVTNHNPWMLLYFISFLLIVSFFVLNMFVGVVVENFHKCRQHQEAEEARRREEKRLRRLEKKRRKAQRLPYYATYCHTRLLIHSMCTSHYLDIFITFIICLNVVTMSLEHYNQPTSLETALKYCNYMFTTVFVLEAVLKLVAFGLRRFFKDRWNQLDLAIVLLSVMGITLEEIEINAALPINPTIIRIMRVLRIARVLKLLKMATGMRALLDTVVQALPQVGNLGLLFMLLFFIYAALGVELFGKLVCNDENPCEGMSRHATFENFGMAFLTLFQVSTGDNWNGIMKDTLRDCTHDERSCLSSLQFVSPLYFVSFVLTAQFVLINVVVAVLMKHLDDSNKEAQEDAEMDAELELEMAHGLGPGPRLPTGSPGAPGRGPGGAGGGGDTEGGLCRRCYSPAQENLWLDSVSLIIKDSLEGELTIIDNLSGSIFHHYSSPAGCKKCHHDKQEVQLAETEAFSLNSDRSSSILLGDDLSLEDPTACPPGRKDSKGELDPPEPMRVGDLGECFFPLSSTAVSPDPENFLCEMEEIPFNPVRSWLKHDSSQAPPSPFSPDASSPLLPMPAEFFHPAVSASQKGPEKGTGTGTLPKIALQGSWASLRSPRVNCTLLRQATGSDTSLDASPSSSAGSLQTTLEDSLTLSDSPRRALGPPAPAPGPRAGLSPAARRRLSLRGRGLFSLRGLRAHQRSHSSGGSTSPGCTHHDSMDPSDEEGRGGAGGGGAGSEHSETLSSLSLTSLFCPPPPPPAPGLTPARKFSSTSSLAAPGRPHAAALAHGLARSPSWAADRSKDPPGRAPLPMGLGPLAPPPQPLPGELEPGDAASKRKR

With `Cc1ccc([C@H](c2nnnn2Cc2ccccc2)N2CCN(C(=O)c3ccccc3)CC2)s1` [3-14-3-S], the “Percentage of activity vs. vehicle” value in the assay on rats [1] was 29%; in the assay on rats [2], 33%; with healthy rats [3], 5%; in the assay with rats [6] it was 6%; in the assay on healthy rats [7], 3%; in the assay on rats [8] it was −11%. The “Percentage of activity vs. vehicle” value in the assay with rats [9] stood at 14%; with rats [10] (paw licking time early phase) it was 16%; in the assay on rats [10] (paw licking time late phase) it was 36%. Further, in assay [4], the “Ca2+ influx triggered with 90 mM KCl (response, normalized)” value was 87.25±2.245%. Also, on CaV3.3, the “effect on CaV3.3 mediated currents” value is “inhibited”. Further, the half-inhibitory concentration (IC50) was 26.3 µM against CaV3.3 (depolarizing voltage of −10 mV), 23 µM against CaV3.1 (depolarizing voltage of −10 mV) and 35.6 µM against CaV3.2 (depolarizing voltage of −10 mV). Moreover, the “effect on CaV3.1 mediated currents” value on CaV3.1 is “inhibited”. Further, in assay [5], the “Activation V1/2” value was determined as 4.083 ± 2.038 mV. Besides, in [5], the “Activation k (slope factor)” value was determined as 9.308 ± 1.780. In [5], the “Inactivation V1/2” value is recorded as −25.246 ± 2.129 mV. Also, the “Inactivation k (slope factor)” value in [5] is given as −12.570 ± 2.035. Moreover, in [5], the “peak calcium current density” value is on record as −41.70±7.927 pA/pF. The “reduction in Ca2+ currents at peak current density” value in assay [5] was about 56.97%. The “effect on CaV3.2 mediated currents” value at CaV3.2 is reported as “inhibited”.
Turning to `CN1CC[C@]23c4c5ccc(O)c4O[C@H]2[C@@H](O)C=C[C@H]3[C@H]1C5` [Morphine], the “Percentage of activity vs. vehicle, internal reference” value (“Percentage … internal reference” for short) in the assay with healthy rats [11] is 66%; in the assay with rats [12] (early phase), 65%; in the assay on rats [12] (late phase), 77%; in the assay on rats [13], 107%; with healthy rats [14], 67%.
Turning to `O=C(Nc1cccc([C@H](c2nnnn2Cc2ccccc2)N2CCN(C(=O)c3ccco3)CC2)c1)c1ccc(Br)cc1` [1-159-2-R], the “Ca2+ influx triggered with 90 mM KCl (response, normalized)” value in assay [4] is 67.37±2.294%.
Consider `CNCC[C@H](Oc1cccc2ccccc12)c1cccs1` [Duloxetine], for which the “Percentage … internal reference” value in the assay on rats [15] is 66%.
On to `Cc1cccc(C)c1-n1nnnc1[C@@H](Cc1ccccc1)N1CCN(S(=O)(=O)c2ccccc2)CC1` [3-25-R], for which the “Ca2+ influx triggered with 90 mM KCl (response, normalized)” value in [4] was 62.43±1.967%. Moreover, the “effect on CaV3.3 mediated currents” value on CaV3.3 was “negligible effects”. For the same compound, the “effect on CaV3.1 mediated currents” value at CaV3.1 was “negligible effects”. Further, in [5], the “Activation V1/2” value stood at 2.383 ± 2.037 mV, the “Activation k (slope factor)” value worked out at 9.659 ± 1.798, the “Inactivation V1/2” value is on record as −26.709 ± 2.655 mV and the “Inactivation k (slope factor)” value was −15.208 ± 2.714. In [5], the “peak calcium current density” value is −54.1±8.385 pA/pF and the “reduction in Ca2+ currents at peak current density” value is listed as about 44.17%. Moreover, the “effect on CaV3.2 mediated currents” value on CaV3.2 is reported as “negligible effects”.
`C[C@@H](c1ccccc1)n1nnnc1[C@H](c1ccsc1)N1CCC(n2c(=O)[nH]c3ccccc32)CC1` [5bl, 1-{1-[(S)-{1-[(1S)-1-phenylethyl]-1H-1,2,3,4-tetrazol-5-yl}(thiophen-3-yl)methyl]piperidin-4-yl}-2,3-dihydro-1H-1,3-benzodiazol-2-one]: the “inhibition of influenza virus polymerase PA-PB1 protein-protein interactions” value in assay [16] was “active”.
In the case of `COc1ccc2c(c1)c(CC(=O)O)c(C)n2C(=O)c1ccc(Cl)cc1` [Indomethacin], the “Percentage … internal reference” value in the assay with rats [17] was 92%; in the assay on rats [18] it was 64%.
